# Source: patent publication US8158389B2, “Products and methods for in vivo secretion of monatin” (priority 2005, dated 2012)
# Test system: E. coli MG1655::pCECNde/4978 DAT/SEQ ID NO. 42
# Assay: R,R monatin excreted by E. coli with D-amino acid treatment
# Format: cell-based, Escherichia coli
# Conditions: 5 mM D-amino acid treatment added 3 hours following induction
# Description: For inoculum preparation, the E. coli MG1655 : : pCECNde/4978 DAT/SEQ ID NO. 42 were grown overnight at 37° C. with shaking at 250 rpm in Luria-Bertani (“LB”) medium with 25 μg/mL chloramphenicol. For the experimental treatments, Trp-1+glucose medium, a minimal medium that has been used for increased production of tryptophan in E. coli cells (Zeman et al. Folia Microbiol. 35:200-4, 1990), was prepared as follows. To 800 mL nanopure water the following reagents were added: 2 g (NH4)2SO4, 13.6 g KH2PO4. The pH was adjusted to 7.0, the volume was increased to 948 mL, and the medium was autoclaved. Following sterilization, 0.2 g MgSO4.7H2O, 0.01 g CaCl2.2H2O, and 0.5 mg FeSO4.7H2O were added to the medium in a 1.8 mL volume followed by addition of 0.2 mL of Neidhardt's micronutrient solution (Neidhardt F. C., Bloch P. L., and Smith D. F., 1974. Culture medium for Enterobacteria. J. Bacteriol. 119: 736-746). Neidhardt's medium includes (per liter): 0.18 g (NH4)6(MO7)24.4H2O, 1.24 g H3BO3, 0.36 g CoCl2.6H2O, 0.12 g CuSO4 (anhydrous), 0.8 g MnCl2.4H2O, and 0.14 g ZnSO4.7H2O. A 50% glucose solution was prepared separately and sterile-filtered. […]
# The monatin from the 48 hour samples was concentrated via a solid phase extraction (“SPE”) column (see Example 27). Then, the R,R and S,S stereoisomers were analyzed by the method of Example 13.
row,Structure (SMILES),"48 hour Monatin/dry cell wt., Total Monatin"
1,C[C@@H](N)C(=O)O [D-alanine],0.33 mg/g
2,N[C@H](CCC(=O)O)C(=O)O [D-glutamate],0.47 mg/g
